Drawing on ChEMBL document CHEMBL1121755, “Comparison of the inhibition of methotrexate-sensitive and -resistant Lactobacillus casei cell cultures with purified Lactobacillus casei dihydrofolate reductase by 4,6-diamino-1,2-dihydro-2,2-dimethyl-1-(3-substituted-phenyl)-s-triazines. Use of quantitative structure-activity relationships in …” (1981), this text covers log 1/Ki app for 35 molecules.

The target in the experiment is Dihydrofolate reductase (Lactobacillus casei) (UniProt P00381). As to conditions: Lacticaseibacillus casei.
Sequence of Dihydrofolate reductase (Lactobacillus casei) (P00381 whole entry): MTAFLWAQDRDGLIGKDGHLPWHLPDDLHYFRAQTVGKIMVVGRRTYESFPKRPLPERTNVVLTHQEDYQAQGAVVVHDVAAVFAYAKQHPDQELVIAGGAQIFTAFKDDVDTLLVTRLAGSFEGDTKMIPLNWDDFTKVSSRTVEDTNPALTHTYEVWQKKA

Molecules are shown by their SMILES.

Description: Inhibitory activity against Lactobacillus casei dihydrofolate reductase (DHFR)

In turn, `CC1(C)N=C(N)N=C(N)N1c1cccc(OCCOc2cccc(C(F)(F)F)c2)c1` had a log 1/Ki app of 4.1. The same measure for `CC1(C)N=C(N)N=C(N)N1c1cccc(COc2cccc(C#N)c2)c1`: 5.31; for `CCCCCCCCCCCCOc1cccc(N2C(N)=NC(N)=NC2(C)C)c1`: 4.63; for `CC(C)(C)c1cccc(N2C(N)=NC(N)=NC2(C)C)c1`: 3.2. As to `CC(=O)c1cccc(N2C(N)=NC(N)=NC2(C)C)c1`, the log 1/Ki app came to 2.87. `CC1(C)N=C(N)N=C(N)N1c1cccc(COc2cccc(NC(=N)S)c2)c1` had a log 1/Ki app of 4.36. `CC1(C)N=C(N)N=C(N)N1c1cccc(I)c1` gave a log 1/Ki app of 3.73. The molecule `CC1(C)N=C(N)N=C(N)N1c1cccc(S(=O)(=O)F)c1` registered a log 1/Ki app of 3.21. For the molecule `CC1(C)N=C(N)N=C(N)N1c1cccc([N+](=O)[O-])c1`, the log 1/Ki app came to 3.56.

In the case of `CC1(C)N=C(N)N=C(N)N1c1cccc(OCCOc2ccccc2)c1`, the log 1/Ki app is 3.74.

The molecule `CC1(C)N=C(N)N=C(N)N1c1cccc(OCc2ccccc2)c1` came in with a log 1/Ki app of 4.2. In the case of `CC(C)(C)c1cccc(OCc2cccc(N3C(N)=NC(N)=NC3(C)C)c2)c1`, the log 1/Ki app was determined as 5.44. As for `CCCCCCCCCCCOc1cccc(N2C(N)=NC(N)=NC2(C)C)c1`, the log 1/Ki app came out at 4.54.

Molecule `CC1(C)N=C(N)N=C(N)N1c1cccc(COc2cccc(Cl)c2)c1` gave a log 1/Ki app of 5.41. `CC1(C)N=C(N)N=C(N)N1c1cccc(OCCCCOc2cccc(C(F)(F)F)c2)c1` showed a log 1/Ki app of 4.79. `CCCCCCCCCCCCCOc1cccc(N2C(N)=NC(N)=NC2(C)C)c1` registered a log 1/Ki app of 4.81. The same measure for `CC1(C)N=C(N)N=C(N)N1c1cccc(OCc2ccc(Cl)c(Cl)c2)c1`: 4.41.

`CC1(C)N=C(N)N=C(N)N1c1cccc(Br)c1` yielded a log 1/Ki app of 3.69. Regarding `CCCCCCCCCOc1cccc(N2C(N)=NC(N)=NC2(C)C)c1`, the log 1/Ki app came out at 4.71. Consider `COc1cccc(OCc2cccc(N3C(N)=NC(N)=NC3(C)C)c2)c1`, for which the log 1/Ki app came out at 5.56. Consider `Cc1cccc(N2C(N)=NC(N)=NC2(C)C)c1`, for which the log 1/Ki app was 3.07. With `CCCCOc1cccc(N2C(N)=NC(N)=NC2(C)C)c1`, the log 1/Ki app was 4.2.

Turning to `CCc1cccc(OCc2cccc(N3C(N)=NC(N)=NC3(C)C)c2)c1`, the log 1/Ki app is 5.31. `CCCCCCc1cccc(N2C(N)=NC(N)=NC2(C)C)c1` yielded a log 1/Ki app of 4.96. In the case of `CC(C)c1cccc(OCc2cccc(N3C(N)=NC(N)=NC3(C)C)c2)c1`, the log 1/Ki app came out at 5.41. `CC1(C)N=C(N)N=C(N)N1c1cccc(COc2cccc(CO)c2)c1` came in with a log 1/Ki app of 5.45. For the molecule `CC1(C)N=C(N)N=C(N)N1c1cccc(COc2cccc(NC(N)=O)c2)c1`, the log 1/Ki app came to 5.36. In turn, `CC1(C)N=C(N)N=C(N)N1c1cccc(OCCCCOc2ccccc2)c1` gave a log 1/Ki app of 4.79. `CC1(C)N=C(N)N=C(N)N1c1cccc(F)c1` showed a log 1/Ki app of 3.29. The molecule `CC1(C)N=C(N)N=C(N)N1c1cccc(CNc2cc(C(N)=O)cc(C(N)=O)c2)c1` showed a log 1/Ki app of 4.74.

`CCCCCCCCCCCCCCOc1cccc(N2C(N)=NC(N)=NC2(C)C)c1`: the log 1/Ki app amounted to 4.5.

Molecule `CC(=O)Nc1cccc(OCc2cccc(N3C(N)=NC(N)=NC3(C)C)c2)c1` returned a log 1/Ki app of 5.45.

`CC1(C)N=C(N)N=C(N)N1c1cccc(COc2ccccc2)c1` returned a log 1/Ki app of 5.44.

With `CCOC(=O)c1cccc(N2C(N)=NC(N)=NC2(C)C)c1`, the log 1/Ki app came out at 3.21. As for `Cc1cccc(OCc2cccc(N3C(N)=NC(N)=NC3(C)C)c2)c1`, the log 1/Ki app came out at 5.33.
